Measurements as given in the NIST ThermoML archive (doi:10.1016/j.jct.2016.10.040).
± gives the expanded uncertainty stated by the source.

Experiments:
[1] = Crystal; DTA
[2] = Molar enthalpy of transition or fusion; conditions: Crystal; DSC

- Normal melting temperature [1]: 55.07 ± 1.1 °C
- Molar enthalpy of transition or fusion [2]: 4.76 ± 0.217 kcal/mol
SMILES: O=Cc1cccc([N+](=O)[O-])c1 [3-nitrobenzaldehyde]
